Several values for one entry are separate records, joined by “and”; a condition that tells them apart may be missing. Equal values may be shown once.
How the values were obtained:
[1] = target: T1, Sirt3 (Homo sapiens, UniProt Q9NTG7); test: fluorescence-based deacetylase assay with Z-Lys(acetyl)-AMC (ZMAL) substrate; assay type: biochemical; conditions: for IC50: mean ± SD of duplicate experiments, read-out: Sirt3 inhibition IC50; for inhibition at 50 µM / inhibition at 10 µM: percent inhibition relative to controls; for Sirt3 inhibition: n.i. = no inhibition detected, tested at 100 µM, 50 µM and 10 µM
T1 construct: Sirt3_118−395; made in house
T1 sequence (Q9NTG7 118-395): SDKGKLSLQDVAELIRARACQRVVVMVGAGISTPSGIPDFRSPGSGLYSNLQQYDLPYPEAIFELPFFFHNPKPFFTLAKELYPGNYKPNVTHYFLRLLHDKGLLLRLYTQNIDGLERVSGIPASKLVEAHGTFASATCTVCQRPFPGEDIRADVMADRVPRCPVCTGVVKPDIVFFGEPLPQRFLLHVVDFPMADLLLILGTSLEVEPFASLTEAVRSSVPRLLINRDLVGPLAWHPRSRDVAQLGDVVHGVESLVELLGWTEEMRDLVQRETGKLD
Method: (§1) The influence on deacetylase activity of three human sirtuin isoforms (Sirt1–3) was determined in a fluorescence-based assay, using Z-Lys(acetyl)-AMC (ZMAL) as a substrate. Compared to the lead structure 2a, all compounds except 2e–h show increased inhibitory activity against Sirt2 (Table 1). […] Moreover, a slight increase in selectivity for Sirt2 and Sirt3 over Sirt1 could be observed for 2c, 4a and 4b. […] Though not photoswitchable, compounds 4a and 4b were synthesized to test the influence of a rigid conformation around the C=C double bond on sirtuin inhibition. […] A recently developed fluorescence polarization (FP)-based assay enables mapping of ligand binding to this specific binding site. For 2a an interaction with the selectivity pocket was already implied in the same work. Additionally performed docking studies proposed a binding mode in which 2a mimics the nicotinamide residue of NAD^+, whereas aromatic amino acid residues of the selectivity pocket stabilize the dimethylphenol ring. As photoisomerization in stilbenes and azo dyes is accompanied by a perpendicular twist of the phenyl ring towards the former molecular plane, we assumed that this conformational change should provoke a differential binding situation at least for the dimethylphenol residue in 2a. Unfortunately, binding of 2b and c could not be localised in the vicinity of the selectivity pocket of Sirt2, so that the binding pose remains unclear.
(§2) The photoswitchable diazeno compound 11 was subjected to biological evaluation to test the effect of photoisomerization on the inhibitory activity. The enzyme assay mixture containing 11 was exposed to 5 minutes of 365 nm radiation and compared with the results of a non-irradiated measurement. […] Unfortunately, 365 nm radiation turned out to have only minor effects on the IC50 values of 11 (Table 3).
(§3) Cloning, expression and purification of recombinant proteins: Expression and purification of Sirt1_133-747, Sirt2_56−356, and Sirt3_118−395 was carried out as described previously. Identity and purity were verified by SDS-PAGE [65]. Protein concentration was determined by the Bradford assay.
(§4) Bioassay: The inhibitory effect of compounds 2a–h, 4a/b, 8a and 11 on Sirt1–3 was detected via a previously reported fluorescence based assay. The synthetic substrate Z-Lys(acetyl)-AMC (ZMAL) is deacetylated by sirtuins, followed by tryptic digestion and thereby release of […], leading to a fluorescent readout. Inhibition was determined by comparing percentage substrate conversion to a DMSO control after subtraction of the blank fluorescence signal. All compounds were tested at 100 µM, 50 µM and 10 µM, respectively. […] IC50 values were calculated with OriginPro 9.0 G using a non-linear regression to fit the dose response curve. An enzyme-free blank control and a 100% conversion control using AMC instead of ZMAL were measured as well. Inhibition measurements were performed in biological duplicates for all compounds.

[2] = target: T2, Sirt1 (Homo sapiens, UniProt Q96EB6); test: as above; assay type: biochemical; conditions: for Sirt1 inhibition: n.i. = no inhibition detected, tested at 100 µM, 50 µM and 10 µM
T2 construct: Expression and purification of Sirt1_133-747; made in house
T2 sequence (Q96EB6 133-747): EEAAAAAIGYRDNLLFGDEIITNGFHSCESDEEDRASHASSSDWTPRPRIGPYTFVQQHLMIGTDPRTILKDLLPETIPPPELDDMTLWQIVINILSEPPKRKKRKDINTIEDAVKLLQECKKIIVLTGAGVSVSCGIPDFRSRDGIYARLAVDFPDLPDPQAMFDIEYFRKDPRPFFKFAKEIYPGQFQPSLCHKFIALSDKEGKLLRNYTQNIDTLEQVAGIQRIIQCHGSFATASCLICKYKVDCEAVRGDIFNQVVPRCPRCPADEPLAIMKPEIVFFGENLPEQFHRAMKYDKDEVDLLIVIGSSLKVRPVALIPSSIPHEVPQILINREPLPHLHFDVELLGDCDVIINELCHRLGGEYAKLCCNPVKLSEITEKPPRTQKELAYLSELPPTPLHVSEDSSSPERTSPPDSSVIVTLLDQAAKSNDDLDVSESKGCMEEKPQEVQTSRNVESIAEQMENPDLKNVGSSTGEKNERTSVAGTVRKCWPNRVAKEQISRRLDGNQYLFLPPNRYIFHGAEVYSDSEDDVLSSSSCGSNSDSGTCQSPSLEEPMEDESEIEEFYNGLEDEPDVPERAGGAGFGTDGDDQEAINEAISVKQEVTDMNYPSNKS
Method: as §1, §2, §3, §4

[3] = target: T3, Sirt2 (Homo sapiens, UniProt Q8IXJ6); test: as above; assay type: biochemical; conditions: for IC50: mean ± SD of duplicate experiments, read-out: Sirt2 inhibition IC50; for inhibition at 10 µM / inhibition at 50 µM: percent inhibition relative to controls
T3 construct: Sirt2_56−356; made in house
T3 sequence (Q8IXJ6 56-356): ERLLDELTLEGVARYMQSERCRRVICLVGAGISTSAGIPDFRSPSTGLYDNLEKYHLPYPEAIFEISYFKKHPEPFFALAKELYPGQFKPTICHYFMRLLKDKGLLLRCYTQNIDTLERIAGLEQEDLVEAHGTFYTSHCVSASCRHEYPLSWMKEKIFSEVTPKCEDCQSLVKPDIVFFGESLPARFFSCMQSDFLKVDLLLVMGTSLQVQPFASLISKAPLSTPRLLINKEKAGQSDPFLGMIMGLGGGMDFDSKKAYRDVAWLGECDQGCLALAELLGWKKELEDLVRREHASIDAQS
Method: as §1, §2, §3, §4

[4] = E→Z photoisomerization of azastilbenes under 254 nm irradiation, proton NMR analysis; assay type: physicochemical; conditions: after 100 minutes of 254 nm irradiation, 10 mM in methanol
Method: Photochemistry of compounds 2b and 2f was investigated via UV–vis spectroscopy, LC–HRMS and NMR spectroscopy. Compound 2b represents the core structure of the azastilbenes investigated, whereas in 2f the influence of ortho methylation was intended to be examined. For UV–vis spectroscopy 50 µM solutions in 5% DMSO (v/v) in enzyme assay buffer were used, as this reflects the enzyme assay conditions. However, for LC-HRMS and NMR analysis, a higher concentration of 10 mM in methanol was necessary to receive reliable chromatograms and spectra.
LC–HRMS analysis provided deeper insights and clarified the differential behaviour observed in the UV–vis spectra of 2b and 2f after UV irradiation. As anticipated, UV irradiation lead to E→Z isomerization of the C=C double bond in both compounds. […] Unfortunately, the amount of photoisomerization was only moderate, since after 100 minutes of continuous irradiation still substantial amounts of the (E)-isomers were present in the mixtures (Figure 3). Proton NMR analysis implied photostationary states comprising a relative percentage of 45% (Z)-2b and 57% (Z)-2f, respectively after 100 minutes of 254 nm irradiation. The NMR spectra can be found in Supporting Information File 1.
Photochemistry: All photoisomerization experiments were conducted under ruby light of 630 nm. […]

[5] = percent inhibition relative to controls

## Cc1cc(O)cc(C)c1/C=C/c1cncc(C(N)=O)c1 [Compound 2a, reference compound]
[1]
  IC50: 41.7 ± 2 µM
[2]; [5]
  inhibition at 50 µM: 27%
[3]
  IC50: 24.6 ± 2.8 µM

## NC(=O)c1cncc(/C=C/c2ccccc2)c1 [Compound 2b, (E)-5-Styrylnicotinamide]
[1]
  inhibition at 50 µM: 89%
[2]; [5]
  inhibition at 10 µM: 71%
[3]
  IC50: 8.7 ± 0.2 µM
[4]
  relative percentage of (Z)-isomer in photostationary state: 45%

## NC(=O)c1cncc(/C=C/c2ccc(F)cc2)c1 [Compound 2c, (E)-5-(4-Fluorostyryl)nicotinamide]
[1]
  IC50: 7.5 ± 0.9 µM
[2]; @ 100 µM, percent inhibition relative to controls
  inhibition at 100 µM: 51%
[3]
  IC50: ~7 µM and 6.6 µM

## COc1ccc(/C=C/c2cncc(C(N)=O)c2)cc1 [Compound 2d]
[1]
  inhibition at 50 µM: 90%
[2]; [5]
  inhibition at 10 µM: 51%
[3]
  inhibition at 10 µM: 64%

## NC(=O)c1cncc(/C=C/c2cccc(OCc3ccccc3)c2)c1 [Compound 2e]
[1]
  inhibition at 50 µM: 60%
[2]; [5]
  inhibition at 50 µM: 61%
[3]
  inhibition at 50 µM: 69%

## COc1cc(C)c(/C=C/c2cncc(C(N)=O)c2)c(C)c1 [Compound 2f]
[1]
  inhibition at 50 µM: 79%
[2]; [5]
  inhibition at 10 µM: 26%
[3]
  inhibition at 10 µM: 21%
[4]
  relative percentage of (Z)-isomer in photostationary state: 57%

## NC(=O)c1cncc(/C=C/c2ccc3c(c2)OCO3)c1 [Compound 2g]
[1]
  inhibition at 50 µM: 87%
[2]; [5]
  inhibition at 50 µM: 52%
[3]
  inhibition at 50 µM: 62%

## NC(=O)c1cncc(/C=C/c2cccc(NC(=O)c3ccc(OCc4ccccc4)cc3)c2)c1 [Compound 2h]
[1]
  Sirt3 inhibition: n.i.
[2]
  Sirt1 inhibition: n.i.
[3]
  inhibition at 10 µM: 9%

## NC(=O)c1cncc(C2=Cc3ccccc3CC2)c1 [Compound 4a]
[1]
  inhibition at 10 µM: 38%
[2]
  Sirt1 inhibition: complete loss of activity and n.i.
[3]
  inhibition at 10 µM: 48%

## NC(=O)c1cncc(-c2ccc3ccccc3c2)c1 [Compound 4b]
[1]
  inhibition at 10 µM: 38%
[2]
  Sirt1 inhibition: complete loss of activity and n.i.
[3]
  inhibition at 10 µM: 45%

## NC(=O)c1cnc2c(ccc3ccccc32)c1 [Compound 8a]
[1]
  Sirt3 inhibition: complete inactivity and n.i.
[2]
  Sirt1 inhibition: complete inactivity and n.i.
[3]; n.i. = no inhibition detected, tested at 100 µM, 50 µM and 10 µM
  Sirt2 inhibition: complete inactivity and n.i.
other
  melting point: 276.8 °C
